The target in this assay is Tyrosine-protein kinase JAK2 (Homo sapiens, UniProt O60674). The experiment in a line: JAK2 Inhibition Assay: Compounds of Formula I were screened for their ability to inhibit JAK2 using the general enzyme inhibition assay method, in which the assay mixture contained 1 mM ATP, 10 μM Omnia® Y7 peptide (Catalog # IVGN KNZ3071C, Invitrogen Corporation, Carlsbad, Calif.) and 4 nM JAK2 in a total volume of 25 μL. JAK2 was purchased from Invitrogen Corporation, Carlsbad, Calif. (catalog # IVGN PV4288).

A word on the IC50: it is the midpoint of a concentration-inhibition curve.

Structures are written as SMILES.

Sequence of Tyrosine-protein kinase JAK2 (O60674 whole entry): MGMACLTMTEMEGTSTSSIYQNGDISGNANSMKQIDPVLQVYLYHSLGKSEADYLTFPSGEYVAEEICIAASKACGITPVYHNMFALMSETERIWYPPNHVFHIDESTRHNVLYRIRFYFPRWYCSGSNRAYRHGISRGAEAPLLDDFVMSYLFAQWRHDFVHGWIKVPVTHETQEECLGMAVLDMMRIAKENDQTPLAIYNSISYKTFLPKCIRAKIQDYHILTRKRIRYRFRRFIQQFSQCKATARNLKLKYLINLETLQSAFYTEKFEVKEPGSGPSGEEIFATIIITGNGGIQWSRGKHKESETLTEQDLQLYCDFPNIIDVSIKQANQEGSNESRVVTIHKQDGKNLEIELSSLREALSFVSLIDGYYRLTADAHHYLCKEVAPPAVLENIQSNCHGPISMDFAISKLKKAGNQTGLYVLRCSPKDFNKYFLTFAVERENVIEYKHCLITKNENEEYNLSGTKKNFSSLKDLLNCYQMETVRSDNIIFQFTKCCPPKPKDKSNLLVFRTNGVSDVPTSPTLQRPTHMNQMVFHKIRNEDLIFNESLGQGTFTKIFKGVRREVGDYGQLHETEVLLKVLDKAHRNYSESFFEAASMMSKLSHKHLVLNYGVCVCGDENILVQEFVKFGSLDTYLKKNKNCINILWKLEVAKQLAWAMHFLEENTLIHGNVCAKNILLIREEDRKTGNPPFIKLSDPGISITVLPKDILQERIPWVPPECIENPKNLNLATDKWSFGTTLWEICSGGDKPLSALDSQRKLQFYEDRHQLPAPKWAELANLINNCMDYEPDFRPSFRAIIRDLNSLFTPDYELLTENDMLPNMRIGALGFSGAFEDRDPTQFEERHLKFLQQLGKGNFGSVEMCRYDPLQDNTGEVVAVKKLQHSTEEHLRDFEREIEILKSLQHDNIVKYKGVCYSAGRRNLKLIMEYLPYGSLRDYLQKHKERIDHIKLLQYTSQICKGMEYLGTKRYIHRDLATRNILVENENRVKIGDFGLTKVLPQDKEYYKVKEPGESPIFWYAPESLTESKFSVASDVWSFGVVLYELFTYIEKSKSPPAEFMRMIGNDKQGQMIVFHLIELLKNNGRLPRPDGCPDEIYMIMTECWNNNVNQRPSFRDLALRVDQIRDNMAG

With `CCC(CC)n1cc(-c2nc(-c3cnn([C@H]4C[C@](O)(CO)C4)c3)cn3nccc23)cn1`, the IC50 is under 10 nM.

The record behind these values is ChEMBL document CHEMBL5728516, “4,6-substituted-pyrazolo[1,5-a]pyrazines as janus kinase inhibitors” (2021).
